Laboratory results: ChEMBL document CHEMBL3046273, “Molecular cloning and pharmacological characterisation of a tyramine receptor from the rice stem borer, Chilo suppressalis (Walker)” (Pest Manag Sci, 2013)
Structures can show the parent of a compound that is named as a salt. Calls of active or inactive are those of the source. No cut-off for these calls is given here.

Tests used:
Type in all cases: functional, cell-based
[1] = target: T1, TyR1 (Chilo suppressalis) (UniProt H9TVJ1); assay: Agonist activity at Chilo suppressalis (rice stem borer) tyramine receptor TyR1 expressed in HEK293 cells assessed as reduction in forskolin-induced cAMP accumulation at 10 uM incubated for 20 min; parameters: scale not given: the % may be the effect or the level left
T1 sequence (whole entry): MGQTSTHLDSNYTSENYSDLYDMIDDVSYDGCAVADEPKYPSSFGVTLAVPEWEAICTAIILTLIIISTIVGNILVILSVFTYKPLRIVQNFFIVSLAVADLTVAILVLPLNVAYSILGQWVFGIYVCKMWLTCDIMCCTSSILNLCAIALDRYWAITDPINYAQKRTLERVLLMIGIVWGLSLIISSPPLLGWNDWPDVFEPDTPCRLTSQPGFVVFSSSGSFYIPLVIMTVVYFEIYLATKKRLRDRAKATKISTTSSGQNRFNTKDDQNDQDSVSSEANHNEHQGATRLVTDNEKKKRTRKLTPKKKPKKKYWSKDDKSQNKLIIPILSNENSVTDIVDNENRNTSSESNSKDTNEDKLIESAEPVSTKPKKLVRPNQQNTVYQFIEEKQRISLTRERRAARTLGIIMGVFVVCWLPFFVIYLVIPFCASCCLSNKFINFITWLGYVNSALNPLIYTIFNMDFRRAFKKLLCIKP

[2] = target: T1, TyR1 (Chilo suppressalis); assay: Agonist activity at Chilo suppressalis (rice stem borer) tyramine receptor TyR1 expressed in HEK293 cells assessed as increase in forskolin-induced cAMP accumulation at 10 uM incubated for 20 min relative to untreated control
[3] = target: T1, TyR1 (Chilo suppressalis); assay: (§1) Agonist activity at Chilo suppressalis (rice stem borer) tyramine receptor TyR1 expressed in HEK293 cells assessed as reduction in forskolin-induced cAMP accumulation incubated for 20 min
[4] = target: T2, TyR1 (Chilo suppressalis, UniProt H9TVJ1); assay: as §1
T2 sequence (H9TVJ1 whole entry): T1 sequence (whole entry)

[5] = target: T1, TyR1 (Chilo suppressalis); assay: Agonist activity at Chilo suppressalis (rice stem borer) tyramine receptor TyR1 expressed in HEK293 cells assessed as reduction in forskolin-induced cAMP accumulation at < 1 umol incubated for 20 min

SMILES	Activity [1]	other results
Clc1cccc(Cl)c1NC1=NCCN1	Active	
NCCc1ccc(O)c(O)c1		fold change (FC) [2]: 2
NCCc1c[nH]c2ccc(O)cc12	inactive	Activity [2]: inactive
NCC(O)c1ccc(O)cc1 (racemic) [OCTOPAMINE HYDROCHLORIDE]	56%	Activity [3]: Dose-dependent effect; EC50 [4]: 978 nM
NCCc1ccc(O)cc1 [TYRAMINE HYDROCHLORIDE]	75%	Activity [3]: Dose-dependent effect; EC50 [4]: 369 nM
Cc1cc(Cl)ccc1/N=C/N(C)C	inactive	
c1ccc2c(CC3=NCCN3)cccc2c1	inactive	
Cc1ccc(/N=C/N(C)/C=N/c2ccc(C)cc2C)c(C)c1	Active	Activity [5]: inactive
